System: subjects with TRD
Assay: Modified Observer's Assessment of Alertness/Sedation (MOAA/S)
Protocol: The Investigational Medicinal Product (IMP) R(−)-ketamine hydrochloride in sterile water for intravenous injection was investigated as an […] treatment of TRD. The International Union of Pure and Applied Chemistry (IUPAC) name is of the IMP is (2R)-2-(2-chlorophenyl)-2-(methylamino)cyclohexan-1-one. Subjects received the solution at either 30 mg or 60 mg dose, or a placebo. The IMP or placebo was administered on Day 1 as a single IV infusion via an electronic infusion pump over 40 minutes. The duration of study participation for each subject was up to 29 days including a screening period, a 3-day in-clinic visit, and 2 follow-up visits. 101 subjects were enrolled in approximately 20 study centers in the EU and the US.
The MOAA/S will were to determine if R(−)-ketamine causes the side effect of sedation and to what degree. Sedation was evaluated by the study staff using the MOAA/S. The observer recorded the subject's alertness pre-dose, every 20 minutes for first 2 hours post-dose, and at 4 and 6 hours after the start of the infusion.

[1] = 30 mg, to 1 hour 20 min post-start, n 33
[2] = 30 mg, to 1 hour 30 min post-start, n 10
[3] = 30 mg, to 1 hour 40 min post-start, n 33
[4] = 30 mg, to 1 hour 50 min post-start, n 10
[5] = 30 mg, to 1 hour post-start, n 33
[6] = 60 mg, 10 min post start of infusion, n 11
[7] = 60 mg, 20 min post start of infusion, n 35
[8] = 60 mg, 30 min post start of infusion, n 11
[9] = 60 mg, 40 min post start of infusion, n 35
[10] = 60 mg, 50 min post start of infusion, n 11
[11] = 60 mg, 1 hour 10 min post start of infusion, n 11
[12] = 60 mg, 1 hour 20 min post start of infusion, n 34
[13] = 60 mg, 1 hour 30 min post start of infusion, n 11
[14] = 60 mg, 1 hour 40 min post start of infusion, n 35
[15] = 60 mg, 1 hour 50 min post start of infusion, n 11
[16] = 60 mg, 1 hour post start of infusion, n 35
[17] = 60 mg, to 10 min post-start, n 11
[18] = 60 mg, to 20 min post-start, n 35
[19] = 60 mg, to 30 min post-start, n 11
[20] = 60 mg, to 40 min post-start, n 35
[21] = 60 mg, to 50 min post-start, n 11
[22] = 60 mg, to 1 hour 10 min post-start, n 11
[23] = 60 mg, to 1 hour 20 min post-start, n 34
[24] = 60 mg, to 1 hour 30 min post-start, n 11
[25] = 60 mg, to 1 hour 40 min post-start, n 35
[26] = 60 mg, to 1 hour 50 min post-start, n 11
[27] = 60 mg, to 1 hour post-start, n 35

CN[C@@]1(c2ccccc2Cl)CCCCC1=O [PCN 101]
MOAA/S change from baseline, Mean [1]: −0.2
MOAA/S change from baseline, Median [1]: 0.0
MOAA/S change from baseline, Mean [2]: 0.0
MOAA/S change from baseline, Median [2]: 0.0
MOAA/S change from baseline, Mean [3]: −0.1
MOAA/S change from baseline, Median [3]: 0.0
MOAA/S change from baseline, Mean [4]: 0.0
MOAA/S change from baseline, Median [4]: 0.0
MOAA/S change from baseline, Mean [5]: −0.2
MOAA/S change from baseline, Median [5]: 0.0
MOAA/S change from baseline, Mean (30 mg, to 2 hours, n 33): −0.0
MOAA/S change from baseline, Median (30 mg, to 2 hours, n 33): 0.0
MOAA/S change from baseline, Mean (30 mg, to 4 hours, n 31): 0.0
MOAA/S change from baseline, Median (30 mg, to 4 hours, n 31): 0.0
MOAA/S change from baseline, Mean (30 mg, to 6 hours, n 31): 0.0
MOAA/S change from baseline, Median (30 mg, to 6 hours, n 31): 0.0
MOAA/S score, Mean [6]: 4.9
MOAA/S score, Median [6]: 5.0
MOAA/S score, Mean [7]: 4.8
MOAA/S score, Median [7]: 5.0
MOAA/S score, Mean [8]: 4.9
MOAA/S score, Median [8]: 5.0
MOAA/S score, Mean [9]: 4.8
MOAA/S score, Median [9]: 5.0
MOAA/S score, Mean [10]: 4.9
MOAA/S score, Median [10]: 5.0
MOAA/S score, Mean [11]: 5.0
MOAA/S score, Median [11]: 5.0
MOAA/S score, Mean [12]: 4.8
MOAA/S score, Median [12]: 5.0
MOAA/S score, Mean [13]: 5.0
MOAA/S score, Median [13]: 5.0
MOAA/S score, Mean [14]: 4.8
MOAA/S score, Median [14]: 5.0
MOAA/S score, Mean [15]: 5.0
MOAA/S score, Median [15]: 5.0
MOAA/S score, Mean [16]: 4.8
MOAA/S score, Median [16]: 5.0
MOAA/S score, Mean (60 mg, 2 hours, n 35): 4.8
MOAA/S score, Median (60 mg, 2 hours, n 35): 5.0
MOAA/S score, Mean (60 mg, 4 hours, n 32): 4.9
MOAA/S score, Median (60 mg, 4 hours, n 32): 5.0
MOAA/S score, Mean (60 mg, 6 hours, n 32): 5.0
MOAA/S score, Median (60 mg, 6 hours, n 32): 5.0
MOAA/S change from baseline, Mean [17]: −0.1
MOAA/S change from baseline, Median [17]: 0.0
MOAA/S change from baseline, Mean [18]: −0.2
MOAA/S change from baseline, Median [18]: 0.0
MOAA/S change from baseline, Mean [19]: −0.1
MOAA/S change from baseline, Median [19]: 0.0
MOAA/S change from baseline, Mean [20]: −0.2
MOAA/S change from baseline, Median [20]: 0.0
MOAA/S change from baseline, Mean [21]: −0.1
MOAA/S change from baseline, Median [21]: 0.0
MOAA/S change from baseline, Mean [22]: 0.0
MOAA/S change from baseline, Median [22]: 0.0
MOAA/S change from baseline, Mean [23]: −0.2
MOAA/S change from baseline, Median [23]: 0.0
MOAA/S change from baseline, Mean [24]: 0.0
MOAA/S change from baseline, Median [24]: 0.0
MOAA/S change from baseline, Mean [25]: −0.2
MOAA/S change from baseline, Median [25]: 0.0
MOAA/S change from baseline, Mean [26]: 0.0
MOAA/S change from baseline, Median [26]: 0.0
MOAA/S change from baseline, Mean [27]: −0.2
MOAA/S change from baseline, Median [27]: 0.0
MOAA/S change from baseline, Mean (60 mg, to 2 hours, n 35): −0.2
MOAA/S change from baseline, Median (60 mg, to 2 hours, n 35): 0.0
MOAA/S change from baseline, Mean (60 mg, to 4 hours, n 32): −0.1
MOAA/S change from baseline, Median (60 mg, to 4 hours, n 32): 0.0
MOAA/S change from baseline, Mean (60 mg, to 6 hours, n 32): 0.0
MOAA/S change from baseline, Median (60 mg, to 6 hours, n 32): 0.0
